Like-named read-outs stand apart in the source and are kept apart here.
Tests used:
Format in all cases: cell-based, Human
Conditions in all cases: 4 days incubation, mean ± SD, triplicate
[1] = test system: HeLa cervical cancer cell line; assay: MTT cytotoxicity assay, HeLa cells
Experimental: (§1) Cell cultures: Human A549, HepG2, and HeLa cell lines from Cancer Institute and Hospital of Chinese Academy of Medical Sciences (Beijing, China), were cultured in Dulbecco’s modified Eagle’s medium (DMEM, Gibco, CA, USA) supplemented with 10% (v/v) fetal calf serum (Gibco, CA, USA), penicillin G (Macgene, China) 100 units mL^−1 and streptomycin (Macgene, China) 100 μg mL^−1, at 37 °C under 5% CO2.
(§2) Cell viability assay: The assay was run in triplicate. In a 96-well plate, each well was plated with 2 × 10^4 cells. After cell attachment overnight, the medium was removed, and each well was treated with 100 μL of medium containing 0.1% DMSO or different concentrations of the test compounds and the positive control cis-platin. The plate was incubated at 37 °C for 4 days in a humidified, 5% CO2 atmosphere. Cytotoxicity was determined using a modified 3-(4,5-dimethylthiazol-2-yl)-2,5-diphenyltetrazolium bromide (MTT) colorimetric assay. After the addition of a 10 μL MTT solution (5 mg/mL), cells were incubated at 37 °C for 4 h. After adding 150 μL DMSO, cells were shaken to mix thoroughly. The absorbance of each well was measured at 540 nm in a Multiscan photometer.
(§3) Statistical analysis: Values were expressed as mean ± SD. Statistical analyses were performed using the Student’s t-test. Differences were considered significant when associated with a probability of 5% or less (p ≤ 0.05).

[2] = test system: A549 lung cancer cell line; assay: MTT cytotoxicity assay, A549 cells
Experimental: as §1, §2, §3

[3] = test system: Hep G2 hepatocellular cancer cell line; assay: MTT cytotoxicity assay, Hep G2 cells
Experimental: as §1, §2, §3

With `N.N.[Cl][Pt][Cl]` [cis-platin, reference compound] the IC50 [1] was 15.3 ± 0.35 µM, the IC50 [2] was 7.9 ± 0.23 µM and the IC50 ([3]; read-out: IC50 (μM) HepG2) was 13 ± 1.49 µM.

In the case of `C=C1C(=O)OC2C1C(O)C(OC(=O)C(C)CC)C(C)CCC(=O)C(C)(O)C2OC(=O)C(C)CC` (stereo not drawn) [Compound 4, divarolide G], the IC50 ([1]; Homo sapiens, 96 h) is reported as > 40 µM, the IC50 ([2]; Homo sapiens, 96 h) is reported as > 40 µM and the IC50 ([3]; Homo sapiens, HepG2, 96 h) is reported as > 40 µM.

With `C=C(C)C(=O)O[C@H]1[C@H](O)[C@H]2C(=C)C(=O)O[C@@H]2[C@@H](OC(=O)C(C)C)[C@@](C)(O)C(=O)CC[C@H]1C` [Compound 3, divarolide F] the IC50 ([1]; Homo sapiens, 96 h) was > 40 µM, the IC50 ([2]; Homo sapiens, 96 h) was > 40 µM and the IC50 ([3]; Homo sapiens, HepG2, 96 h) was > 40 µM.

With `C=C1C(=O)O[C@H]2[C@H]1[C@@H](O)[C@H](OC(=O)CC(C)C)[C@H](C)CCC(=O)[C@](C)(O)[C@@H]2OC(=O)C(C)C` [Compound 1, 4β,8α-dihydroxy-5β-isobutyryloxy-9β-3-methylbutyryloxy-3-oxo-germacran-6α, 12-olide] the IC50 ([1]; Homo sapiens, 96 h) was 29.39 ± 0.17 µM, the IC50 ([2]; Homo sapiens, 96 h) was > 40 µM and the IC50 ([3]; Homo sapiens, HepG2, 96 h) was 17 ± 2.23 µM.

`C=C1C(=O)O[C@H]2[C@H]1[C@@H](O)[C@H](OC(=O)CC(C)C)[C@H](C)CCC(=O)[C@](C)(O)[C@@H]2OC(=O)CC(C)C` [Compound 2, divarolide E] showed an IC50 ([1]; Homo sapiens, 96 h) of 16.8 ± 0.27 µM, an IC50 ([2]; Homo sapiens, 96 h) of 30.7 ± 0.51 µM and an IC50 ([3]; Homo sapiens, HepG2, 96 h) of 7.47 ± 0.21 µM.

In the case of `C=C1C(=O)O[C@H]2[C@H]1[C@@H](O)[C@H](OC(=O)CC(C)C)[C@H](C)CCC(=O)[C@](C)(O)[C@@H]2OC(=O)C(C)CC` (stereo partly drawn) [Compound 5, 4β,8α-dihydroxy-5β-2-methylbutyryloxy-9β-3-methylbutyryloxy-3-oxo-germacran-7β, 12α-olide], the IC50 ([1]; Homo sapiens, 96 h) is reported as 11.6 ± 1 µM, the IC50 ([2]; Homo sapiens, 96 h) is reported as > 40 µM and the IC50 ([3]; Homo sapiens, HepG2, 96 h) is reported as 31.64 ± 0.16 µM.
